According to PMC10564737, “Structure-based design of a phosphotyrosine-masked covalent ligand targeting the E3 ligase SOCS2” (Nature Communications, 2023):
“And” between values parts separate entries of the source, which are not always exact repeats. Identical values can stand only once. Like-named read-outs stand apart in the source and are kept apart here.

Molecular target: T1, SBC2 (Homo sapiens, UniProt O14508)
T1 construct: SOCS2 (amino acids 32–198); His6 (N, cleaved yes); made in house; host or cells: E. coli BL21(DE3)
T1 sequence (O14508 32-198): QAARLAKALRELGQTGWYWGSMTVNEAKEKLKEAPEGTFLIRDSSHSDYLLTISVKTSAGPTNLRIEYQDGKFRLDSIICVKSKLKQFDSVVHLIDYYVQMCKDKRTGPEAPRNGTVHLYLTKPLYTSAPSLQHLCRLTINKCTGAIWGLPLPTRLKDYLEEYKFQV
T1 sequence (Q15370 1-104 partner limits assumed): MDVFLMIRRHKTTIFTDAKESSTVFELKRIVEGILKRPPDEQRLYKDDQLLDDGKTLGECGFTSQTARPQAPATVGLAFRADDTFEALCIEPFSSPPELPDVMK
T1 sequence (Q15369 17-112 partner limits assumed): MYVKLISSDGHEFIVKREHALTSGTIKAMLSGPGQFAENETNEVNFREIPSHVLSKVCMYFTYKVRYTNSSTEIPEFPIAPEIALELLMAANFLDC
Experiment: Covalent fluorescence polarization (FP) probe displacement assay
Assay type: binding
Design: Michaelis-Menten best-fit value Vmax / Michaelis-Menten best-fit Vmax: unit not given here
Conditions: for Anisotropy: Cycle 12 (55 min)
Description: With the specific covalent modification of Cys111 established, we decided to fully characterize MN551 as a covalent SOCS2 inhibitor. […] (Fig. 2g, h, Supplementary Fig. 9). Due to the covalent nature of the competing inhibitor, a time-dependent reduction in the fraction of protein-bound probe is observed. […] This value illustrates reasonable specificity for a covalent inhibitor, with nonetheless scope for future optimization. In addition to characterizing the kinetic covalency parameters, we have also assessed the stability of the MN551 by monitoring its reactivity (half-life >70 min) with reduced glutathione (GSH) (Supplementary Fig. 10)[35].
To monitor the SBC2-ligand binding kinetics we designed a fluorescein-labeled small-molecule probe - compound 26. The fluorescence polarization (anisotropy) of a threefold serial dilution of 50 µM SBC2 in 10 nM of the probe in 100 mM HEPES pH 7.5, 50 mM NaCl, 0.5 mM TCEP, 2% DMSO was measured to determine the KL (Supplementary Fig. 9A) (BMG Labtech PHERAstar – firmware v1.33). Protein titration and the curves were fitted using GraphPad Prism 9, using one-site fitting models to determine the probe binding constant, KL. Samples were run in triplicate in 384 well plates, using a total volume per well of 16 μL. The bound fraction of the probe is measure using the equation:1 Fb=Af−A/Af−Ab Where,
A time-dependent reduction in probe anisotropy were measured for a 2-fold serial dilution of […] compound MN551 in 10 nM probe +300 μM SBC2. To determine the initial reversible binding affinity, the initial bound fraction of the probe at time = 0, Fbo (the y-intercept in Fb v/s Time plot, Supplementary Fig. 9B) was plotted against MN551 concentration, and the obtained IC50 is then converted to Ki (Supplementary Fig. 9C)[17]. The slope from Fb versus time graph when divided by Fbo gives rate of covalency, kobs. A plot of kobs v/s MN551 concentration using Michaelis–Menten model of GraphPad Prism 9, provides the parameters kinact (maximum potential rate of inactivation) and KI (concentration of MN551 at which kobs = kinact/2) (Supplementary Fig. 9D, E).
The observed first-order rate constant, kobs is related to KI and kinact by the equation:2 kobs=kinactI/KI+I
At [I]«[KI] the above equation is converted to3 […]
The slope from the plot of kobs against concentration of MN551 gives us the covalent efficiency parameter kinact/KI (Supp Fig. 9F)[30],[33].

[1] = MN551 1562.5 nM, Cycle 6 (25 min)
[2] = MN551 3125 nM, Cycle 6 (25 min)
[3] = MN551 6250 nM, Cycle 6 (25 min)
[4] = MN551 12500 nM, Cycle 6 (25 min)
[5] = MN551 25000 nM, Cycle 6 (25 min)
[6] = MN551 50000 nM, Cycle 6 (25 min)
[7] = linear fit through origin, 14 X values

## O=C(CCl)Nc1cccc(CNC(=O)[C@H](Cc2ccc(OP(=O)(O)O)cc2)NC(=O)Cc2ccc(F)cc2)c1 [MN551]
MN551 1562.5 nM, Cycle 7 (30 min)
  Anisotropy based on Raw Data (485): 249.9 and 251.8 and 246.3
MN551 1562.5 nM, Cycle 2 (5 min)
  Fb, fraction bound: 0.7824 and 0.8178 and 0.7856
MN551 1562.5 nM, Cycle 3 (10 min)
  Fb, fraction bound: 0.7647 and 0.786 and 0.7702
[1]
  Anisotropy data 485,520,520: 247 and 253 and 251
  Fb: 0.6849 and 0.7296 and 0.7125
MN551 1562.5 nM
  Anisotropy: 232.7 and 235.9 and 233.9
MN551 3125 nM, Cycle 7 (30 min)
  Anisotropy based on Raw Data (485): 236.7 and 234.8 and 231.2
MN551 3125 nM, Cycle 3 (10 min)
  Fb, fraction bound: 0.6544 and 0.6694 and 0.6412
[2]
  Anisotropy data 485,520,520: 232.2 and 235.2 and 237.3
  Fb: 0.5431 and 0.5648 and 0.5878
MN551 3125 nM
  Anisotropy: 219.6 and 215.4 and 213.4
MN551 6250 nM, Cycle 7 (30 min)
  Anisotropy based on Raw Data (485): 210.9 and 211.2 and 208.6
MN551 6250 nM, Cycle 3 (10 min)
  Fb, fraction bound: 0.4366 and 0.4454 and 0.4414
[3]
  Anisotropy data 485,520,520: 214.2 and 214.4 and 216.1
  Fb: 0.3707 and 0.3722 and 0.3949
MN551 6250 nM
  Anisotropy: 197.5 and 192.2 and 194.7
MN551 6250 nM, Cycle 19 (90 min), n=1
  Anisotropy data 485,520,520: 182.4 and 180.6 and 182.5
MN551 12500 nM, Cycle 7 (30 min)
  Anisotropy based on Raw Data (485): 198.9 and 196.3 and 194.4
MN551 12500 nM, Cycle 3 (10 min)
  Fb, fraction bound: 0.2711 and 0.337 and 0.3633
[4]
  Anisotropy data 485,520,520: 197.3 and 198 and 197.2
  Fb: 0.2088 and 0.2204 and 0.2229
MN551 12500 nM
  Anisotropy: 181.6 and 186.4 and 190.6
MN551 12500 nM, Cycle 19 (90 min), n=1
  Anisotropy data 485,520,520: 175.8 and 177.4 and 179.3
MN551 25000 nM, Cycle 7 (30 min)
  Anisotropy based on Raw Data (485): 184.9 and 182.9 and 181.5
MN551 25000 nM, Cycle 8 (35 min)
  Anisotropy based on Raw Data (485): 180.7 and 181.6
MN551 25000 nM, Cycle 3 (10 min)
  Fb, fraction bound: 0.1627 and 0.184 and 0.1553
[5]
  Anisotropy data 485,520,520: 189.8 and 187 and 188.6
  Fb: 0.137 and 0.1185 and 0.1447
MN551 25000 nM
  Anisotropy: 177.2 and 177.1 and 175
MN551 25000 nM, Cycle 19 (90 min), n=1
  Anisotropy data 485,520,520: 168.3 and 171.4 and 169.1
MN551 50000 nM, Cycle 7 (30 min)
  Anisotropy based on Raw Data (485): 181.6 and 178.4 and 180.2
MN551 50000 nM, Cycle 8 (35 min)
  Anisotropy based on Raw Data (485): 179.2 and 176.8 and 178.5
MN551 50000 nM, Cycle 3 (10 min)
  Fb, fraction bound: 0.08456 and 0.09836 and 0.08356
[6]
  Anisotropy data 485,520,520: 185.8 and 181.1 and 183.7
  Fb: 0.09866 and 0.06389 and 0.1001
MN551 50000 nM
  Anisotropy: 173.6 and 173.5 and 174.7
MN551 50000 nM, Cycle 19 (90 min), n=1
  Anisotropy data 485,520,520: 167.6 and 168.6 and 168.7
MN551 100000 nM, Cycle 7 (30 min)
  Anisotropy based on Raw Data (485): 179.4 and 180.3 and 179.5
MN551 100000 nM, Cycle 8 (35 min)
  Anisotropy based on Raw Data (485): 176.4 and 175.9
MN551 100000 nM, Cycle 3 (10 min)
  Fb, fraction bound: 0.06066 and 0.07013 and 0.06449
MN551 100000 nM, Cycle 6 (25 min)
  Anisotropy data 485,520,520: 179.9 and 183.4
MN551 100000 nM
  Anisotropy: 176.4 and 173.8 and 174.3
MN551 100000 nM, Cycle 19 (90 min), n=1
  Anisotropy data 485,520,520: 171.6 and 169.1
Mean, n = 3, time = 0, read-out: Ki
  Ki: 1110 nM
Calculated from IC50 at time = 0, read-out: Ki at time = 0 (initial reversible binding affinity)
  Ki: 1100 nM
Experiment n=1, 95% CI 0.01343 to 0.01564
  Michaelis-Menten best-fit value Vmax: 0.0145
Experiment n=1, Y = 3.349e-006*X + 0.000, 95% CI 3.026e-006 to 3.671e-006
  Linear fit best-fit value Slope: 3.349e-6
[7]
  Slope of linear regression (Equation Y = slope*X + 0.000), covalent efficiency: Y = 3.866e-006*X + 0.000
  Slope, 95% Confidence Intervals: 3.764e-006 to 3.969e-006
Mean ± SEM, n = 3
  kinact (maximum potential rate of inactivation): 2.1 × 10^–4 s^-1
Mean ± SEM, n = 3, read-out: kinact (maximum potential rate of inactivation)
  kinact: 0.0125 min⁻¹
mean, n = 3
  kinact/KI (covalent efficiency): 57.53 M⁻¹ s⁻¹
mean, n = 3, read-out: Ki
  Ki: 3560.67 nM
mean, n = 3, read-out: Kinact (converted)
  kinact: 0.0153 min⁻¹
mean, n = 3, read-out: kinact/KI (covalent efficiency)
  kinact/KI: 3480 M⁻¹ min⁻¹
n=2 experiment
  Michaelis-Menten Vmax, 95% CI (profile likelihood): 0.01305 to 0.01515
n=2 experiment, R squared 0.9902
  Michaelis-Menten best-fit value Vmax: 0.01406
n=2 experiment, from Michaelis-Menten fit (Vmax), read-out: Kinact (min-1) (converted)
  kinact: 0.0141 min⁻¹
n=2 experiment, from Michaelis-Menten fit (Vmax), read-out: Kinact (s-1)
  kinact: 0.014 min⁻¹
read-out: Slope: Kinact/Ki (M-1min-1), FP competition assay to evaluate MN551 covalent efficiency, replicate n=3, Michaelis-Menten fit
  kinact/KI: 3690 M⁻¹ min⁻¹
Replicate n=3, 95% CI 0.01570 to 0.01942
  Michaelis-Menten best-fit Vmax: 0.01742
Replicate n=3, Y-intercept 0
  Linear fit 1/slope: 258642
Replicate n=3, Y-intercept 0, MN551 below Ki titration
  Linear fit best-fit Slope: 3.866e-6
Single replicates
  Kinact, individual replicates n1-n3: 0.014 min⁻¹
  Kinact/KI, individual replicates n1-n3: 52.40 M⁻¹ s⁻¹
Single replicates, read-out: Kinact, individual replicates n1-n3 (converted)
  kinact: 0.0174 min⁻¹
Single replicates, read-out: Kinact/KI, individual replicates n1-n3
  kinact/KI: 3860 M⁻¹ min⁻¹
